For one test, the target named is EGFR (Homo sapiens, UniProt P00533). In words: EGF receptor phosphorylation assay in cells (ELISA). The arrangement: expressed in transfected cells; host or cells: NIH 3T3/C7 cell line. As to conditions: NIH 3T3/C7 cells, EGF stimulation. The test is classed as cell-based. The procedure: EGF Receptor kinase activity in cells genetically engineered to express human EGF-R was measured as described below: 1. Coat ELISA plates (Coming, 96 well, Cat. #25805-96) wit 05-101 antibody at 0.5 μg per well in PBS, 150 μL final volume/well, and store overnight at 4° C. Coated plates are good for up to 10 days when stored at 4° C. 1. NIH 3T3/C7 cell line (Honegger, et al., Cell 51:199-209, 1987) can be use for this assay. 3. Resuspend cells in seeding medium (DMEM, 0.5% bovine serum), and count the cells using trypan blue. Viability above 90% is acceptable. Seed cells in DMEM medium (0.5% bovine serum) at a density of 10,000 cells per well, 100 μL per well, in a 96 well microtiter plate. Incubate seeded cells in 5% CO2 at 37° C. for about 40 hours. 1. Check seeded cells for contamination using an inverted microscope. Dilute drug stock (10 mg/mL in DMSO) 1:10 in DMEM medium, then transfer 5 μL to a test well for a final drug dilution of 1:200 and a final DMSO concentration of […]. […] The maximal phosphotyrosine signal is determined by subtracting the value of the negative controls from the positive controls. The percent inhibition of phosphotyrosine content for extract-containing wells is then calculated, after subtraction of the negative controls. The IC50 values measured in the EGF receptor phosphorylation assay for the compound of formula VI are depicted in Table 3: […]
(ELISA stands for enzyme-linked immunosorbent assay.)

Test [1] addresses T1, chimeric receptor containing the EGFR extracellular domain and intracellular HER2 kinase domain (Homo sapiens, UniProt P04626).
T1 construct: P00533 (Epidermal growth factor receptor)
In words: EGF receptor-HER2 phosphorylation assay in whole EGFR-NIH3T3 cells (ELISA). The test is classed as cell-based. As to conditions: NIH3T3 cells with chimeric receptor, EGF stimulation. The procedure: HER2 kinase activity in whole EGFR-NIH3T3 cells was measured as described below. 1. Coat ELISA plates (Corning, 96 well, Cat. #25805-96) with 05-101 antibody at 0.5 µg per well in PBS, 100 μL final volume/well, and store overnight at 4° C. Coated plates are good for up to 10 days when stored at 4° C. 1. An NIH3T3 cell line overexpressing a chimeric receptor containing the EGFR extracellular domain and intracellular HER2 kinase domain can be used for this assay. 3. Resuspend cells in seeding medium (DMEM, 0.5% bovine serum), and count the cells using trypan blue. Viability above 90% is acceptable. Seed cells in DMEM medium (0.5% bovine serum) at a density of 10,000 cells per well, 100 μL per well, in a 96 well microtiter plate. Incubate seeded cells in 5% CO2 at 37° C. for about 40 hours. 1. Check seeded cells for contamination using an inverted microscope. […] The maximum phosphotyrosine signal is determined by subtracting the value of the negative controls from the positive controls. The percent inbibitation of phosphotyrosine content for extract-containing wells is then calculated, after subtraction of the negative controls. The IC50 values measured in the EGF receptor-HER2 phosphorylation assay for the compound of formula VI are depicted in Table 6: […]

T1 sequence (P04626 720-987 limits assumed, change not shown): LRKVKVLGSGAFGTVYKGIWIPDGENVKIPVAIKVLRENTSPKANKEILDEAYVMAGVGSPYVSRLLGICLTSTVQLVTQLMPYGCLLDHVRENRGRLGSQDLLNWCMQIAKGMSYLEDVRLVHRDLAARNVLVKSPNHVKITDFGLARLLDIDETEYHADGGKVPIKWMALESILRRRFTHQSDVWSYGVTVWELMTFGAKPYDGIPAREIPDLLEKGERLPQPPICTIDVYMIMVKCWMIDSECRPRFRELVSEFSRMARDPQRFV
Sequence of EGFR (P00533 25-1210): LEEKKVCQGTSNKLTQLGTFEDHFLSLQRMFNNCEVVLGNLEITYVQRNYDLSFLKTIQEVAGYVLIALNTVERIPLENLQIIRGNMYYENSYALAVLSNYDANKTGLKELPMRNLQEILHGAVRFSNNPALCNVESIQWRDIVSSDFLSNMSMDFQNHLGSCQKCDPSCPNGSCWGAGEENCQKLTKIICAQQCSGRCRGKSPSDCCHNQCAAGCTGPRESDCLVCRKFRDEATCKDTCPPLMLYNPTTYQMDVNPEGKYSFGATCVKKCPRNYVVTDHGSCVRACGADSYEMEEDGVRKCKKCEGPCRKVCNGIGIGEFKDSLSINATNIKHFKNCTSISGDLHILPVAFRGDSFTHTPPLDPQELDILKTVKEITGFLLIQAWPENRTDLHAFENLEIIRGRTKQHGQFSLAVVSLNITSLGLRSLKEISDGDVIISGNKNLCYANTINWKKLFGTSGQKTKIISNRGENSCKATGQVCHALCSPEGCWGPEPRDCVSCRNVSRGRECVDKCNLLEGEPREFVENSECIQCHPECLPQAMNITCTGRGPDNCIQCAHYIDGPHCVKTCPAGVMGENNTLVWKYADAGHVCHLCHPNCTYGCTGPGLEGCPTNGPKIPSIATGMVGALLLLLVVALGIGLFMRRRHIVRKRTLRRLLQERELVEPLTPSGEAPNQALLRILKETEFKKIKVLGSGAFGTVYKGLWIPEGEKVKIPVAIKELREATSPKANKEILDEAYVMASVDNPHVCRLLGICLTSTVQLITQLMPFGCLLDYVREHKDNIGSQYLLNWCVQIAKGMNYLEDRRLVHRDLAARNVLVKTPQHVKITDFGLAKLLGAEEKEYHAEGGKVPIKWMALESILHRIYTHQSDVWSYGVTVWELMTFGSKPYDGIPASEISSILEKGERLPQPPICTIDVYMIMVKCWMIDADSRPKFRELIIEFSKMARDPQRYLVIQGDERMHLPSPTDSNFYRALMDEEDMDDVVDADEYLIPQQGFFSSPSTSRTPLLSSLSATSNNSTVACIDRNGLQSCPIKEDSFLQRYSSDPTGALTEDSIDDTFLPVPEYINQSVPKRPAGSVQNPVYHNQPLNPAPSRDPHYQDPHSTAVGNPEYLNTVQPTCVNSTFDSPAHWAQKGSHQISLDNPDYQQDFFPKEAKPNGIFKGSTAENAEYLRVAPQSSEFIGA

One may read the IC50 as the concentration that inhibits the measured activity by half. High values mean weaker potency in that assay, low ones greater potency in that assay. In the case of `Cc1cc(/C=C2/C(=O)Nc3ccccc32)c(C)c2c1[nH]c1ccccc12` [VI], the IC50 on EGFR was > 100 µM; in test [1], 8.72 µM.

Values taken from patent US6514981B1, “Methods of modulating tyrosine protein kinase function with indolinone compounds” (Sugen, Inc., priority 1998, dated 2003).
